Source: publication PMC7778606, “Development of the phenylpyrazolo[3,4-d]pyrimidine-based, insulin-like growth factor receptor/Src/AXL-targeting small molecule kinase inhibitor” (Theranostics, 2021)
Like-named read-outs stand apart in the source and are kept apart here.

What was measured:
[1] = system: Wi38, RPE, and HT-22 cells; test: MTT assay, viability of normal cells; type: cell-based, human, mouse
Experimental: (§1) Cells were seeded into 96-well plates at a density of 1-2 × 10^3 cells/well and incubated for 24 h. Cells were treated with vehicle or various concentrations of test compounds for two (PC9 and PC9/ER cells) or three (other cells) days. Cells were further incubated with MTT solution (final concentration of 500 μg/mL) for 4 h at 37 °C. The formazan products were dissolved in dimethyl sulfoxide (DMSO), and the absorbance was measured at 570 nm. The data are presented as a percentage of the control group.

AURKA = target: T1, AURKA (Homo sapiens, UniProt O14965); test: KINOMEscan competition binding assay; conditions: LL6 at 10 μM; read-out: Percent Control
T1 construct: purchased DiscoverX KINOMEscan
T1 sequence (O14965 whole entry): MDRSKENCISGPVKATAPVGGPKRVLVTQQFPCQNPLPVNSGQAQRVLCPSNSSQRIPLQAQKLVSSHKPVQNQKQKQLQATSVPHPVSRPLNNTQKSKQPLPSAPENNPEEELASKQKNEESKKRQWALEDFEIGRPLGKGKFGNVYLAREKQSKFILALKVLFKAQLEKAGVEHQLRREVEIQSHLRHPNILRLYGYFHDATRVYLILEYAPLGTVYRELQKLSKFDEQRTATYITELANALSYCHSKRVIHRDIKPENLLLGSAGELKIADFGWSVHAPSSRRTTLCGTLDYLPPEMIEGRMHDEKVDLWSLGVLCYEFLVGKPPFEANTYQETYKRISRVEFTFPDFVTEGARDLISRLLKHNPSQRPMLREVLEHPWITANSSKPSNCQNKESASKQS
Experimental: […] To briefly summarize, Kd was measured by a competition binding assay that quantitatively measures the ability of a compound to compete with an immobilized ligand. […] […] See more details in the cited references [39]-[42] and see also at www.discoverx.com.

[2] = Pharmacokinetic study in rats; type: in vivo, SD rats
Experimental: The pharmacokinetic properties of LL6 were investigated in SD rats (n = 3). The left femoral artery and vein were catheterized with polyethylene tube (Intramedic^TM PE-50; Becton-Dickinson Diagnostics, MD, USA) under Zoletil (Virbac, Carros, France) anesthesia (50 mg/kg, intramuscular injection). LL6 was dissolved in DMSO/PEG 400/normal saline mixture (35:35:30, v/v/v) and single dose solution (1 mg/kg) was administered to rat intravenously. Approximately 150 µL of blood samples were collected via femoral artery at predetermined time (1, 3, 5, 10, 15, 30, 60, 120 and 180 min) and equivalent volume of normal saline solution with 20 U/mL of heparin was replenished to prevent blood coagulation. After centrifugation of the sample at 16,000 × g for 5 min, 50 µL aliquot of plasma samples were stored at -20 °C until HPLC-MS/MS analysis. The Pharmacokinetic parameters, including terminal half-life (T½), area under the plasma concentration-time curve from time zero to time last (AUClast), area under the plasma concentration-time curve from time zero to time infinity (AUCinf), volume of distribution at steady-state (Vss) and mean residence time (MRT) were calculated using non-compartmental analysis (WinNonlin, version 3.1, NCA 201; Pharsight, Mountain View, CA, USA).

PC9 cells = test: MTT assay, viability of PC9 cells; type: cell-based; conditions: Homo sapiens, PC-9, 48 h, two days, 5% FBS, read-out: IC50 against the viability
Experimental: as §1

A549 cells = test: MTT assay, viability of A549 cells; type: cell-based; conditions: Homo sapiens
Experimental: as §1

Toxicity test in mice = type: in vivo, FVB mice
Experimental: Blood was collected from euthanized mice under isoflurane-induced deep anesthesia by cardiac puncture. After allowing blood coagulation at 4 °C, serum was collected by centrifugation at 3,000 rpm for 10 min at 4 °C. Analysis of the serum levels of alanine aminotransferase (ALT) and aspartate aminotransferase (AST) was performed using a veterinary hematology analyzer (Fuji DRI-Chem 3500s, Fujifilm, Tokyo, Japan) according to the manufacturer' s protocols.

H460 cells = test: MTT assay, viability of H460 cells; type: cell-based; conditions: Homo sapiens, NCI-H460, 72 h, three days, read-out: IC50 against the viability
Experimental: as §1

PC9/ER cells = test: MTT assay, viability of erlotinib-resistant PC9/ER cells; type: cell-based; conditions: Homo sapiens, PC-9/ER, 48 h, two days, 5% FBS, read-out: IC50 against the viability
Source text: Human lung cancer cell lines (A549, H1299, H1993, H1944, H226B, H226Br, H460, H522, HCC15, and PC9), a diploid human lung fibroblast cell line (Wi38), and the Lewis lung carcinoma (LLC) cell line were purchased from the American Type Culture Collection (ATCC, Manassas, VA, USA) or kindly provided by Dr. John V. Heymach (MD Anderson Cancer Center, Houston, TX, USA). Human retinal pigment epithelial (RPE) cells were kindly provided by Dr. Jeong Hun Kim (College of Medicine, Seoul National University, Seoul, Republic of Korea). HT-22 cells were provided by Dr. Dong Gyu Jo (College of Pharmacy, Sungkyunkwan University, Suwon, Republic of Korea). Lung cancer cells were cultured in RPMI 1640 medium supplemented with 10% fetal bovine serum (FBS) and antibiotics (Welgene, Gyeongsan-si, Republic of Korea). LLC, HT-22, and Wi38 cells were maintained in DMEM supplemented with 10% FBS and antibiotics. RPE cells were maintained in DMEM/F12 supplemented with 10% FBS and antibiotics. […]
Cells were seeded into 96-well plates at a density of 1-2 × 10^3 cells/well and incubated for 24 h. […] The formazan products were dissolved in dimethyl sulfoxide (DMSO), and the absorbance was measured at 570 nm. […]

[3] = SD, rat, plasma, rats, intravenous, 1 mg/kg
[4] = LL6-treated mice vs vehicle-treated control

## Nc1ncnc2c1c(-c1ccc(Cl)cc1)nn2CCn1cc(COc2ccc(Nc3nccc(Nc4cnc5ccccc5c4)n3)cc2)nn1 [LL6]
[1]
  cytotoxicity in normal cells compared with the LDB combination: markedly less cytotoxicity
AURKA
  remaining binding at 10 µM: 48%
[2]; SD, rat, plasma, 1 mg/kg, rats, intravenous, read-out: theoretical initial plasma concentration
  C0: 33.3 µM
[2]; [3]
  AUC(0-inf): 852 ng·h/mL
  AUC(0-t): 850 ng·h/mL
  MRT: 20.3 min
  clearance: 19.3 ± 1.2 mL/min/kg
  half-life: 29.1 ± 10 min
[2]; SD, rat, plasma, rats, intravenous, 1 mg/kg, read-out: C0 (theoretical initial plasma concentration)
  C0: 22700 ng/mL
[2]; SD, rat, plasma, rats, intravenous, 1 mg/kg, read-out: Vss
  Vd: 0.392 ± 0.186 L/kg
[2]; rats, intravenous
  elimination in plasma: rapid
[2]; suggested by the pharmacokinetic study
  oral bioavailability: poor
PC9 cells
  IC50: > 10 µM
A549 cells; 72 h, A549, MTT assay, 10 μM, read-out: % cells growth at 10 μM
  activity at 10 µM: 6.4%
A549 cells; 72 h, A549, MTT assay, three days, read-out: IC50 against the viability (Table S4)
  IC50: 6.63 µM
A549 cells; A549, MTT assay, read-out: IC50 against the viability of A549 cells (Table S2)
  IC50: 2.59 µM
Toxicity test in mice; H&E-stained tissues
  histological alterations in major organs, including the lung and liver: did not cause detectable histological alterations
Toxicity test in mice; [4]
  serum ALT level: remained unchanged
  serum AST level: remained unchanged
Toxicity test in mice; mice, LL6 20, 40, and 80 mg/kg daily for 2 weeks
  body weight: remained unchanged
H460 cells
  IC50: 3.43 µM
PC9/ER cells
  IC50: 8.61 µM
